Experiments:
Details in all cases: exposure time: 72 h
E13 [1] = patient-derived glioblastoma stem cells of classical subtype; assay: surviving fraction (nuclei count normalised to DMSO); higher = more cells surviving (less toxic)
E21 [2] = patient-derived glioblastoma stem cells of mesenchymal subtype; assay: as above
E28 [3] = patient-derived glioblastoma stem cells of classical subtype; assay: as above
E31 [4] = patient-derived glioblastoma stem cells of proneural subtype; assay: as above
E34 [5] = patient-derived glioblastoma stem cells of proneural subtype; assay: as above
E57 [6] = patient-derived glioblastoma stem cells of mesenchymal subtype; assay: as above
FT3469 [7] = normal neural stem cell line; assay: as above
E13 [8] = assay: phenotypic distance (Euclidean, principal components) from DMSO controls (arbitrary units); higher = stronger morphological change
E21 [9] = assay: as above
E28 [10] = assay: as above
E31 [11] = assay: as above
E34 [12] = assay: as above
E57 [13] = assay: as above
FT3469 [14] = assay: as above
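Wherever phenotypic distance (Euclidean, principal components) from DMSO controls is given: cell Painting imaging in 384-well plates, CellProfiler features reduced to at least 20 principal components, Euclidean distance versus same-plate DMSO vehicle wells (0.1% v/v), median over six images per well.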
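Wherever surviving fraction (nuclei count normalised to DMSO) is given: nuclei counted by high-content imaging of Hoechst-stained cells in laminin-coated 384-well plates, relative to 0.1% DMSO vehicle wells, with staurosporine as cell-death control.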

OCCN1C[C@H](O)[C@@H](O)[C@H](O)[C@H]1CO [Miglitol]
Details | phenotypic distance | surviving fraction
E13 [1], 4.11523 nM | – | 0.886
E13 [1], 12.34567901 nM | – | 0.888
E13 [1], 37.037 nM | – | 0.938
E13 [1], 111.1111111 nM | – | 0.955
E13 [1], 333.333 nM | – | 0.951
E13 [1], 1000 nM | – | 0.889
E13 [1], 3000 nM | – | 0.98
E13 [8], 4.11523 nM | 0.578 | –
E13 [8], 12.34567901 nM | 0.499 | –
E13 [8], 37.037 nM | 0.296 | –
E13 [8], 111.1111111 nM | 0.445 | –
E13 [8], 333.333 nM | 0.7 | –
E13 [8], 1000 nM | 0.441 | –
E13 [8], 3000 nM | 0.584 | –
E21 [2], 4.11523 nM | – | 0.916
E21 [2], 12.34567901 nM | – | 0.86
E21 [2], 37.037 nM | – | 0.996
E21 [2], 111.1111111 nM | – | 0.946
E21 [2], 333.333 nM | – | 0.949
E21 [2], 1000 nM | – | 0.914
E21 [2], 3000 nM | – | 0.993
E21 [9], 4.11523 nM | 0.913 | –
E21 [9], 12.34567901 nM | 0.734 | –
E21 [9], 37.037 nM | 0.73 | –
E21 [9], 111.1111111 nM | 0.986 | –
E21 [9], 333.333 nM | 0.413 | –
E21 [9], 1000 nM | 0.51 | –
E21 [9], 3000 nM | 0.737 | –
E28 [3], 4.11523 nM | – | 0.997
E28 [3], 12.34567901 nM | – | 0.913
E28 [3], 37.037 nM | – | 1.12
E28 [3], 111.1111111 nM | – | 0.877
E28 [3], 333.333 nM | – | 1.06
E28 [3], 1000 nM | – | 1.14
E28 [3], 3000 nM | – | 1.03
E28 [10], 4.11523 nM | 0.488 | –
E28 [10], 12.34567901 nM | 0.943 | –
E28 [10], 37.037 nM | 1.54 | –
E28 [10], 111.1111111 nM | 0.838 | –
E28 [10], 333.333 nM | 0.651 | –
E28 [10], 1000 nM | 0.777 | –
E28 [10], 3000 nM | 0.637 | –
E31 [4], 4.11523 nM | – | 0.768
E31 [4], 12.34567901 nM | – | 1.15
E31 [4], 37.037 nM | – | 0.954
E31 [4], 111.1111111 nM | – | 0.999
E31 [4], 333.333 nM | – | 1.01
E31 [4], 1000 nM | – | 1.17
E31 [4], 3000 nM | – | 0.956
E31 [11], 4.11523 nM | 0.64 | –
E31 [11], 12.34567901 nM | 0.762 | –
E31 [11], 37.037 nM | 0.853 | –
E31 [11], 111.1111111 nM | 0.501 | –
E31 [11], 333.333 nM | 0.613 | –
E31 [11], 1000 nM | 0.778 | –
E31 [11], 3000 nM | 0.647 | –
E34 [5], 4.11523 nM | – | 0.825
E34 [5], 12.34567901 nM | – | 1.07
E34 [5], 37.037 nM | – | 0.964
E34 [5], 111.1111111 nM | – | 1.17
E34 [5], 333.333 nM | – | 1.04
E34 [5], 1000 nM | – | 0.915
E34 [5], 3000 nM | – | 1.14
E34 [12], 4.11523 nM | 0.65 | –
E34 [12], 12.34567901 nM | 0.713 | –
E34 [12], 37.037 nM | 0.625 | –
E34 [12], 111.1111111 nM | 0.702 | –
E34 [12], 333.333 nM | 0.456 | –
E34 [12], 1000 nM | 0.679 | –
E34 [12], 3000 nM | 0.758 | –
E57 [6], 4.11523 nM | – | 1.03
E57 [6], 12.34567901 nM | – | 1.03
E57 [6], 37.037 nM | – | 1.06
E57 [6], 111.1111111 nM | – | 0.966
E57 [6], 333.333 nM | – | 0.955
E57 [6], 1000 nM | – | 0.997
E57 [6], 3000 nM | – | 1.1
E57 [13], 4.11523 nM | 0.469 | –
E57 [13], 12.34567901 nM | 0.849 | –
E57 [13], 37.037 nM | 0.936 | –
E57 [13], 111.1111111 nM | 0.643 | –
E57 [13], 333.333 nM | 0.643 | –
E57 [13], 1000 nM | 0.624 | –
E57 [13], 3000 nM | 0.981 | –
FT3469 [7], 4.11523 nM | – | 0.878
FT3469 [7], 12.34567901 nM | – | 0.954
FT3469 [7], 37.037 nM | – | 0.984
FT3469 [7], 111.1111111 nM | – | 0.963
FT3469 [7], 333.333 nM | – | 1.06
FT3469 [7], 1000 nM | – | 1.07
FT3469 [7], 3000 nM | – | 1.14
FT3469 [14], 4.11523 nM | 3.01 | –
FT3469 [14], 12.34567901 nM | 0.609 | –
FT3469 [14], 37.037 nM | 0.908 | –
FT3469 [14], 111.1111111 nM | 0.767 | –
FT3469 [14], 333.333 nM | 0.996 | –
FT3469 [14], 1000 nM | 0.816 | –
FT3469 [14], 3000 nM | 0.734 | –

From the supplement of paper PMC13207355
